{"source": "patent US6706740B2", "about": "“Fungicidal heterocyclic aromatic amides and their compositions, methods of use and preparation” (Dow AgroSciences LLC, priority 1999, dated 2004)"}
{"tested_on": "Septoria tritici—SEPTTR", "experiment": "Leaf Blotch of Wheat, in vivo whole plant, 24 Hour Protectant", "conditions": "Zymoseptoria tritici, 24 h, 100 ppm spray, 24 hour protectant, wheat; control of fungal infection vs untreated plants; read-out: SEPTTR in vivo 1 Day Protectant", "units": {"pest or weed control at 100 ppm": "%"}}
{"smiles": "COc1ccnc(C(=O)N[C@H]2CC[C@H](Oc3ccc(C(F)(F)F)cc3)CC2)c1O", "note": "[Compound 270]", "pest or weed control at 100 ppm": "25 to 74"}
{"smiles": "COc1ccnc(C(=O)NC2CC(C)(C)C(OC(=O)c3ccccc3)C(C)(C)C2)c1O", "note": "(stereo not drawn) [Compound 268]", "pest or weed control at 100 ppm": "25 to 74"}
{"smiles": "COc1cc(NC(=O)c2ncccc2O)cc(OC)c1", "note": "[Compound 216]", "pest or weed control at 100 ppm": "< 25"}
{"tested_on": "Mycosphaerella graminicola (Septoria tritici—SEPTTR)", "experiment": "In vitro fungal growth inhibition, Mycosphaerella graminicola (SEPTTR)", "format": "cell-based", "conditions": "Zymoseptoria tritici; 25 ppm in growth medium; read-out: SEPTTR in vitro Growth Inhibition", "units": {"inhibition at 25 ppm": "%"}}
{"smiles": "COc1ccnc(C(=O)N[C@H]2CC[C@H](Oc3ccc(C(F)(F)F)cc3)CC2)c1O", "note": "[Compound 270]", "inhibition at 25 ppm": "> 80"}
{"smiles": "COc1ccnc(C(=O)NC2CC(C)(C)C(OC(=O)c3ccccc3)C(C)(C)C2)c1O", "note": "(stereo not drawn) [Compound 268]", "inhibition at 25 ppm": "< 80"}
{"smiles": "COc1cc(NC(=O)c2ncccc2O)cc(OC)c1", "note": "[Compound 216]", "inhibition at 25 ppm": "< 80"}
{"tested_on": "Puccinia recondita—PUCCRT", "experiment": "Brown Rust of Wheat, in vivo whole plant, 24 Hour Protectant", "conditions": "Puccinia; 100 ppm spray, 24 hour protectant, wheat; control of fungal infection vs untreated plants; read-out: PUCCRT in vivo 1 Day Protectant", "units": {"pest or weed control at 100 ppm": "%"}}
{"smiles": "COc1ccnc(C(=O)N[C@H]2CC[C@H](Oc3ccc(C(F)(F)F)cc3)CC2)c1O", "note": "[Compound 270]", "pest or weed control at 100 ppm": "25 to 74"}
{"smiles": "COc1ccnc(C(=O)NC2CC(C)(C)C(OC(=O)c3ccccc3)C(C)(C)C2)c1O", "note": "(stereo not drawn) [Compound 268]", "pest or weed control at 100 ppm": "25 to 74"}
{"smiles": "COc1cc(NC(=O)c2ncccc2O)cc(OC)c1", "note": "[Compound 216]", "pest or weed control at 100 ppm": "< 25"}
{"tested_on": "Phytophthora infestans (PHYTIN)", "experiment": "microbe, parasite or virus in culture", "format": "cell-based", "conditions": "Phytophthora infestans, read-out: PHYTIN in vitro Growth Inhibition", "units": {"inhibition at 25 ppm": "%"}}
{"smiles": "COc1ccnc(C(=O)N[C@H]2CC[C@H](Oc3ccc(C(F)(F)F)cc3)CC2)c1O", "note": "[Compound 270]", "inhibition at 25 ppm": "< 80"}
{"smiles": "COc1ccnc(C(=O)NC2CC(C)(C)C(OC(=O)c3ccccc3)C(C)(C)C2)c1O", "note": "(stereo not drawn) [Compound 268]", "inhibition at 25 ppm": "> 80"}
{"smiles": "COc1cc(NC(=O)c2ncccc2O)cc(OC)c1", "note": "[Compound 216]", "inhibition at 25 ppm": "< 80"}
{"tested_on": "Stagonospora nodorum (Leptosphaeria nodorum—LEPTNO)", "experiment": "In vitro fungal growth inhibition, Stagonospora nodorum (LEPTNO)", "format": "cell-based", "conditions": "Leptosphaeria; 25 ppm in growth medium; read-out: LEPTNO in vitro Growth Inhibition", "units": {"inhibition at 25 ppm": "%"}}
{"smiles": "COc1ccnc(C(=O)N[C@H]2CC[C@H](Oc3ccc(C(F)(F)F)cc3)CC2)c1O", "note": "[Compound 270]", "inhibition at 25 ppm": "> 80"}
{"smiles": "COc1ccnc(C(=O)NC2CC(C)(C)C(OC(=O)c3ccccc3)C(C)(C)C2)c1O", "note": "(stereo not drawn) [Compound 268]", "inhibition at 25 ppm": "> 80"}
{"smiles": "COc1cc(NC(=O)c2ncccc2O)cc(OC)c1", "note": "[Compound 216]", "inhibition at 25 ppm": "< 80"}
{"tested_on": "Rhizoctonia solani (RHIZSO)", "experiment": "microbe, parasite or virus in culture", "format": "cell-based", "conditions": "Rhizoctonia solani, read-out: RHIZSO in vitro Growth Inhibition", "units": {"inhibition at 25 ppm": "%"}}
{"smiles": "COc1ccnc(C(=O)N[C@H]2CC[C@H](Oc3ccc(C(F)(F)F)cc3)CC2)c1O", "note": "[Compound 270]", "inhibition at 25 ppm": "> 80"}
{"smiles": "COc1ccnc(C(=O)NC2CC(C)(C)C(OC(=O)c3ccccc3)C(C)(C)C2)c1O", "note": "(stereo not drawn) [Compound 268]", "inhibition at 25 ppm": "< 80"}
{"smiles": "COc1cc(NC(=O)c2ncccc2O)cc(OC)c1", "note": "[Compound 216]", "inhibition at 25 ppm": "< 80"}
{"tested_on": "Ustilago maydis (USTIMA)", "experiment": "microbe, parasite or virus in culture", "format": "cell-based", "conditions": "Mycosarcoma maydis, read-out: USTIMA in vitro Growth Inhibition", "units": {"inhibition at 25 ppm": "%"}}
{"smiles": "COc1ccnc(C(=O)N[C@H]2CC[C@H](Oc3ccc(C(F)(F)F)cc3)CC2)c1O", "note": "[Compound 270]", "inhibition at 25 ppm": "> 80"}
{"smiles": "COc1ccnc(C(=O)NC2CC(C)(C)C(OC(=O)c3ccccc3)C(C)(C)C2)c1O", "note": "(stereo not drawn) [Compound 268]", "inhibition at 25 ppm": "< 80"}
{"smiles": "COc1cc(NC(=O)c2ncccc2O)cc(OC)c1", "note": "[Compound 216]", "inhibition at 25 ppm": "< 80"}
{"tested_on": "Phytophthora infestans—PHYTIN", "experiment": "whole plant or invertebrate", "format": "in vivo", "conditions": "Phytophthora, in Solanum lycopersicum, 24 h, read-out: PHYTIN in vivo 1 Day Protectant", "units": {"pest or weed control at 100 ppm": "%"}}
{"smiles": "COc1ccnc(C(=O)N[C@H]2CC[C@H](Oc3ccc(C(F)(F)F)cc3)CC2)c1O", "note": "[Compound 270]", "pest or weed control at 100 ppm": "25 to 74"}
{"smiles": "COc1ccnc(C(=O)NC2CC(C)(C)C(OC(=O)c3ccccc3)C(C)(C)C2)c1O", "note": "(stereo not drawn) [Compound 268]", "pest or weed control at 100 ppm": "< 25"}
{"smiles": "COc1cc(NC(=O)c2ncccc2O)cc(OC)c1", "note": "[Compound 216]", "pest or weed control at 100 ppm": "< 25"}
{"tested_on": "Erysiphe graminis—ERYSGT", "experiment": "Powdery Mildew of Wheat, in vivo whole plant, 24 Hour Protectant", "conditions": "Erysiphe; 100 ppm spray, 24 hour protectant, wheat; control of fungal infection vs untreated plants; read-out: ERYSGT in vivo 1 Day Protectant", "units": {"pest or weed control at 100 ppm": "%"}}
{"smiles": "COc1ccnc(C(=O)N[C@H]2CC[C@H](Oc3ccc(C(F)(F)F)cc3)CC2)c1O", "note": "[Compound 270]", "pest or weed control at 100 ppm": "25 to 74"}
{"smiles": "COc1ccnc(C(=O)NC2CC(C)(C)C(OC(=O)c3ccccc3)C(C)(C)C2)c1O", "note": "(stereo not drawn) [Compound 268]", "pest or weed control at 100 ppm": "< 25"}
{"smiles": "COc1cc(NC(=O)c2ncccc2O)cc(OC)c1", "note": "[Compound 216]", "pest or weed control at 100 ppm": "< 25"}
{"tested_on": "Magnaporthe grisea (Pyricularia oryzae—PYRIOR)", "experiment": "microbe, parasite or virus in culture", "format": "cell-based", "conditions": "Pyricularia oryzae, read-out: PYRIOR in vitro Growth Inhibition", "units": {"inhibition at 25 ppm": "%"}}
{"smiles": "COc1ccnc(C(=O)N[C@H]2CC[C@H](Oc3ccc(C(F)(F)F)cc3)CC2)c1O", "note": "[Compound 270]", "inhibition at 25 ppm": "> 80"}
{"smiles": "COc1ccnc(C(=O)NC2CC(C)(C)C(OC(=O)c3ccccc3)C(C)(C)C2)c1O", "note": "(stereo not drawn) [Compound 268]", "inhibition at 25 ppm": "< 80"}
{"smiles": "COc1cc(NC(=O)c2ncccc2O)cc(OC)c1", "note": "[Compound 216]", "inhibition at 25 ppm": "> 80"}
{"tested_on": "not given", "experiment": "not given", "conditions": "not given"}
{"smiles": "COc1ccnc(C(=O)N[C@H]2CC[C@H](Oc3ccc(C(F)(F)F)cc3)CC2)c1O", "note": "[Compound 270]", "melting point": "168 to 172 °C (dec.)"}
{"smiles": "COc1ccnc(C(=O)NC2CC(C)(C)C(OC(=O)c3ccccc3)C(C)(C)C2)c1O", "note": "(stereo not drawn) [Compound 268]", "melting point": "175 to 200 °C"}
{"smiles": "COc1cc(NC(=O)c2ncccc2O)cc(OC)c1", "note": "[Compound 216]", "melting point": "127 to 129 °C"}
{"tested_on": "Leptosphaeria nodorum—LEPTNO", "experiment": "Glume Blotch of Wheat, in vivo whole plant, 24 Hour Protectant", "conditions": "100 ppm spray, 24 hour protectant, wheat; control of fungal infection vs untreated plants"}
{"smiles": "COc1ccnc(C(=O)N[C@H]2CC[C@H](Oc3ccc(C(F)(F)F)cc3)CC2)c1O", "note": "[Compound 270]", "LEPTNO in vivo 1 Day Protectant": "+ +"}
{"tested_on": "Leptosphaeria nodorum—LEPTNO", "experiment": "Glume Blotch of Wheat, in vivo whole plant, 24 Hour Protectant", "conditions": "Leptosphaeria; 100 ppm spray, 24 hour protectant, wheat; control of fungal infection vs untreated plants; read-out: LEPTNO in vivo 1 Day Protectant", "units": {"pest or weed control at 100 ppm": "%"}}
{"smiles": "COc1ccnc(C(=O)NC2CC(C)(C)C(OC(=O)c3ccccc3)C(C)(C)C2)c1O", "note": "(stereo not drawn) [Compound 268]", "pest or weed control at 100 ppm": "25 to 74"}
{"smiles": "COc1cc(NC(=O)c2ncccc2O)cc(OC)c1", "note": "[Compound 216]", "pest or weed control at 100 ppm": "< 25"}
